The subject of one data set is SK-OV-3. As to the kind of experiment: Anticancer activity against human SK-OV-3 cells assessed as cell growth inhibition incubated for 72 hrs by SRB assay. Format: functional, cell-based. Particulars: Homo sapiens, SK-OV-3, 72 h.
The target of data set [1] is Heat shock protein HSP 90-alpha (Homo sapiens) (UniProt P07900).
Description: Binding affinity to recombinant human HSP90alpha assessed as change in entropy by isothermal titration calorimetry assay
The next data set relates to SK-BR-3. As to the kind of experiment: Anticancer activity against human SK-BR-3 cells assessed as cell growth inhibition incubated for 72 hrs by SRB assay. The class given is functional, cell-based. Particulars: Homo sapiens, SK-BR-3, 72 h.
The nature of data set [2]: Cytotoxicity against human HDF cells assessed as cell growth inhibition incubated for 72 hrs by SRB assay. Format: toxicity, cell-based. Particulars: HDF cells (normal human dermal fibroblasts, NHDF).
The next data set has as its system PC-3. The data set is described as follows: Anticancer activity against human PC-3 cells assessed as cell growth inhibition incubated for 72 hrs by SRB assay. The class given is functional, cell-based. Particulars: Homo sapiens, PC-3, 72 h.

SMILES strings stand for the structures.

As for `CO[C@H]1/C=C\C=C(/C)C(=O)NC2=CC(=O)C(NCc3cn(CCCOS(=O)(=O)c4ccc(C)cc4)nn3)=C(C[C@@H](C)C[C@H](OC)[C@H](O)[C@@H](C)/C=C(\C)[C@@H]1OC(N)=O)C2=O`, the IC50 in the data set on SK-OV-3 turned out to be 450 nM; in the data set on SK-BR-3 it was 440 nM; in the data set with PC-3, 460 nM. Further, the TdeltaS in data set [1] is 1.41 kcal/mol. Besides, the IC50 at 72 h in data set [2] amounted to 440 nM.
